# Data taken from US10131652B2, “Pyrimidinyloxy benzene derivatives as herbicides” (E. I. DU PONT DE NEMOURS AND COMPANY, priority 2014, dated 2018).
# Where two headings read alike, the source gives them in different places.
# How the values were obtained:
# Assay type in all cases: in vivo
# [1] = test system: large (Lg) crabgrass (Digitaria sanguinalis); test: Test B pre-/postemergence plant response; conditions: for pest or weed control at 1000 g/ha / pest or weed control at 125 g/ha / pest or weed control at 500 g/ha: Digitaria sanguinalis, 240 h, read-out: Plant response rating, Crabgrass, Large; for pest or weed control at 1000 g/ha: 1000 g ai/ha; for pest or weed control at 500 g/ha: 500 g ai/ha
# Summary of the method: (§1)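 Visual injury rating, 0 (no effect) to 100 (complete control), vs untreated controls after ~10 d greenhouse. Pre: directed soil spray after planting in loam/sand. Post: plants 2–10 cm, 1–2 leaf stage. Compound in non-phytotoxic solvent plus surfactant.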
# [2] = test system: morningglory (Ipomoea spp.); test: Test B pre-/postemergence plant response; conditions: for pest or weed control at 1000 g/ha / pest or weed control at 125 g/ha / pest or weed control at 500 g/ha: Ipomoea, 240 h, read-out: Plant response rating, Morningglory; for pest or weed control at 1000 g/ha: 1000 g ai/ha; for pest or weed control at 500 g/ha: 500 g ai/ha
# Summary of the method: as §1
# [3] = test system: velvetleaf (Abutilon theophrasti); test: Test B pre-/postemergence plant response; conditions: for pest or weed control at 1000 g/ha / pest or weed control at 125 g/ha / pest or weed control at 500 g/ha: Abutilon theophrasti, 240 h, read-out: Plant response rating, Velvetleaf; for pest or weed control at 1000 g/ha: 1000 g ai/ha; for pest or weed control at 500 g/ha: 500 g ai/ha
# Summary of the method: as §1
# [4] = test system: chickweed (common chickweed, Stellaria media); test: Test D postemergence plant response; conditions: for pest or weed control at 31 g/ha: 31 g ai/ha; for pest or weed control at 62 g/ha: 62 g ai/ha; for pest or weed control at 125 g/ha: 125 g ai/ha
# Summary of the method: (§2)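 Plants grown in pots of peat moss–vermiculite medium with wetting agent and starter nutrients received postemergence applications of the formulated test chemicals at 2 to 18 cm height (1- to 4-leaf stage). After 13 to 15 days in a greenhouse, injury was scored visually against untreated controls, 0 (no effect) to 100 (complete control).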
# kochia (Kochia scoparia) = test: Test D postemergence plant response; conditions: for pest or weed control at 31 g/ha: 31 g ai/ha; for pest or weed control at 62 g/ha: 62 g ai/ha; for pest or weed control at 125 g/ha: 125 g ai/ha
# Summary of the method: as §2
# wild oat (Avena fatua) = test: Test D postemergence plant response; conditions: for pest or weed control at 31 g/ha: 31 g ai/ha; for pest or weed control at 62 g/ha: 62 g ai/ha; for pest or weed control at 125 g/ha: 125 g ai/ha
# Summary of the method: as §2
# [5] = test system: waterhemp_RES1 (ALS & Triazine resistant common waterhemp, Amaranthus rudis); test: Test F postemergence plant response; conditions: scale 0 to 100
# Description: (§3) At the same time, plants from these crop and weed species and also waterhemp_RES1, (ALS & Triazine resistant common waterhemp, Amaranthus rudis), and waterhemp_RES2, (ALS & HPPD resistant common waterhemp, Amaranthus rudis) were treated with postemergence applications of test chemicals formulated in the same manner. Plants ranged in height from 2 to 18 cm for postemergence treatments (1- to 4-leaf stage).
# (§4) Treated plants and controls were maintained in a greenhouse for 14 to 21 days, after which time all species were compared to controls and visually evaluated. Plant response ratings, summarized in Table F, are based on a scale of 0 to 100 where 0 is no effect and 100 is complete control. A dash (-) response means no test result.
# [6] = test system: waterhemp_RES2 (ALS & HPPD resistant common waterhemp, Amaranthus rudis); test: Test F postemergence plant response; conditions: scale 0 to 100
# Description: as §3, §4
# [7] = post-emergence, Postemergence, 0 to 100 scale (0 no effect, 100 complete control)
# [8] = pre-emergence, Preemergence, 0 to 100 scale (0 no effect, 100 complete control)
# [9] = Stellaria media, post-emergence, scale 0 to 100 (0 no effect, 100 complete control), read-out: Chickweed plant response rating
# [10] = Stellaria media, post-emergence, scale 0 to 100, 0 no effect, 100 complete control, read-out: Plant response rating, Chickweed
# [11] = Bassia scoparia, post-emergence, scale 0 to 100 (0 no effect, 100 complete control), read-out: Kochia plant response rating
# [12] = Bassia scoparia, post-emergence, scale 0 to 100, 0 no effect, 100 complete control, read-out: Plant response rating, Kochia
# [13] = Avena fatua, post-emergence, scale 0 to 100 (0 no effect, 100 complete control), read-out: Oat, Wild plant response rating
# [14] = Avena fatua, post-emergence, scale 0 to 100, 0 no effect, 100 complete control, read-out: Plant response rating, Oat, Wild
# [15] = post-emergence, 125 g ai/ha, postemergence, 0 to 100 scale, 0 no effect, 100 complete control
# [16] = pre-emergence, Preemergence, 125 g ai/ha, 0 to 100 scale where 0 is no effect and 100 is complete control
# [17] = pre-emergence, Preemergence, 0 to 100 scale where 0 is no effect and 100 is complete control
# [18] = post-emergence, postemergence, 0 to 100 scale, 0 no effect, 100 complete control
# [19] = Preemergence, 125 g ai/ha, 0 to 100 scale (0 no effect, 100 complete control)
Structure (SMILES),"pest or weed control at 31 g/ha [4, 9]","pest or weed control at 62 g/ha [4, 10]",pest or weed control at 31 g/ha (kochia (Kochia scoparia); [11]),pest or weed control at 62 g/ha (kochia (Kochia scoparia); [12]),pest or weed control at 31 g/ha (wild oat (Avena fatua); [13]),pest or weed control at 62 g/ha (wild oat (Avena fatua); [14]),"Plant response rating, Waterhemp_RES1 ([5]; 8 g ai/ha Postemergence)","Plant response rating, Waterhemp_RES1 ([5]; 16 g ai/ha Postemergence)","Plant response rating, Waterhemp_RES1 ([5]; 31 g ai/ha Postemergence)","Plant response rating, Waterhemp_RES1 ([5]; 62 g ai/ha Postemergence)","Plant response rating, Waterhemp_RES1 ([5]; 125 g ai/ha Postemergence)","Plant response rating, Waterhemp_RES2 ([6]; 8 g ai/ha Postemergence)","Plant response rating, Waterhemp_RES2 ([6]; 16 g ai/ha Postemergence)","Plant response rating, Waterhemp_RES2 ([6]; 31 g ai/ha Postemergence)","Plant response rating, Waterhemp_RES2 ([6]; 62 g ai/ha Postemergence)","Plant response rating, Waterhemp_RES2 ([6]; 125 g ai/ha Postemergence)","pest or weed control at 125 g/ha [1, 15]","pest or weed control at 500 g/ha [1, 17]","pest or weed control at 125 g/ha [2, 15]","pest or weed control at 500 g/ha [2, 17]",other results
"FC(F)c1cc(-c2ccccc2Oc2ncc(Cl)cn2)no1 [Compound 35, 5-chloro-2-[2-[5-(difluoromethyl)-3-isoxazolyl]phenoxy]pyrimidine]",85%,100%,100%,100%,40%,45%,90,80,90,100,100,90,90,95,100,100,–,–,–,–,"pest or weed control at 1000 g/ha [1, 7]: 100%; pest or weed control at 1000 g/ha [1, 8]: 100%; pest or weed control at 1000 g/ha [2, 7]: 100%; pest or weed control at 1000 g/ha [2, 8]: 90%; pest or weed control at 1000 g/ha [3, 7]: 100%; pest or weed control at 1000 g/ha [3, 8]: 100%; Plant response rating (scale 0 to 100), Chickweed ([4]; 8 g ai/ha): 50; pest or weed control at 16 g/ha ([4]; Stellaria media, post-emergence, 16 g ai/ha, scale 0 to 100 (0 no effect, 100 complete control), read-out: Chickweed plant response rating): 85%; Plant response rating (scale 0 to 100), Kochia (kochia (Kochia scoparia); 8 g ai/ha): 95; pest or weed control at 16 g/ha (kochia (Kochia scoparia); Bassia scoparia, post-emergence, 16 g ai/ha, scale 0 to 100 (0 no effect, 100 complete control), read-out: Kochia plant response rating): 100%; Plant response rating (scale 0 to 100), Oat, Wild (wild oat (Avena fatua); 8 g ai/ha): 5; pest or weed control at 16 g/ha (wild oat (Avena fatua); Avena fatua, post-emergence, 16 g ai/ha, scale 0 to 100 (0 no effect, 100 complete control), read-out: Oat, Wild plant response rating): 10%"
"FC(F)c1cc(-c2ccccc2Oc2ncc(Br)cn2)no1 [Compound 62, 5-bromo-2-[2-[5-(difluoromethyl)-3-isoxazolyl]phenoxy]pyrimidine]",70%,95%,98%,100%,30%,40%,80,85,100,100,100,80,80,100,100,100,70%,100%,90%,90%,"pest or weed control at 500 g/ha [1, 7]: 90%; pest or weed control at 125 g/ha [1, 16]: 100%; pest or weed control at 500 g/ha [2, 7]: 100%; pest or weed control at 125 g/ha [2, 16]: 60%; pest or weed control at 125 g/ha [3, 15]: 100%; pest or weed control at 500 g/ha [3, 7]: 100%; pest or weed control at 125 g/ha [3, 16]: 90%; pest or weed control at 500 g/ha [3, 17]: 100%; pest or weed control at 125 g/ha [4, 10]: 98%; pest or weed control at 250 g/ha ([4]; Stellaria media, post-emergence, 250 g ai/ha, scale 0 to 100, 0 no effect, 100 complete control, read-out: Plant response rating, Chickweed): 100%; pest or weed control at 125 g/ha (kochia (Kochia scoparia); [12]): 100%; pest or weed control at 250 g/ha (kochia (Kochia scoparia); Bassia scoparia, post-emergence, 250 g ai/ha, scale 0 to 100, 0 no effect, 100 complete control, read-out: Plant response rating, Kochia): 100%; pest or weed control at 125 g/ha (wild oat (Avena fatua); [14]): 50%; pest or weed control at 250 g/ha (wild oat (Avena fatua); Avena fatua, post-emergence, 250 g ai/ha, scale 0 to 100, 0 no effect, 100 complete control, read-out: Plant response rating, Oat, Wild): 60%"
"FC(F)(F)c1cc(-c2ccccc2Oc2ncc(Cl)cn2)no1 [Compound 200, 5-chloro-2-[2-[5-(trifluoromethyl)-3-isoxazolyl]phenoxy]pyrimidine]",95%,100%,100%,100%,30%,–,70,75,90,95,98,75,95,95,98,98,100%,100%,90%,100%,"pest or weed control at 500 g/ha [1, 18]: 100%; Crabgrass, Large plant response rating [1, 19]: 100; pest or weed control at 500 g/ha [2, 18]: 100%; Morningglory plant response rating [2, 19]: 20; pest or weed control at 125 g/ha [3, 15]: 100%; pest or weed control at 500 g/ha [3, 18]: 100%; pest or weed control at 500 g/ha [3, 17]: 90%; Velvetleaf plant response rating [3, 19]: 80; Plant response rating (scale 0 to 100), Chickweed ([4]; 16 g ai/ha): 60; pest or weed control at 125 g/ha [4, 10]: 100%; Plant response rating (scale 0 to 100), Kochia (kochia (Kochia scoparia); 16 g ai/ha): 95; pest or weed control at 125 g/ha (kochia (Kochia scoparia); [12]): 100%; Plant response rating (scale 0 to 100), Oat, Wild (wild oat (Avena fatua); 16 g ai/ha): 20; pest or weed control at 62 g/ha (wild oat (Avena fatua); Avena fatua, post-emergence, scale 0 to 100, 0 no effect, 100 complete control, read-out: Oat, Wild plant response rating): 30%; pest or weed control at 125 g/ha (wild oat (Avena fatua); [14]): 55%"
